The results in this text go back to patent US5922838A, “Cyclic hexapeptide compounds” (Taisho Pharmaceutical Co., Ltd., priority 1995, dated 1999).

The assay has as its system colon 26 (mouse colon cancer). The assay is described as follows: Anti-tumor effect on colon 26 (mouse colon cancer), subcutaneous transplant in CDF1 mice. Particulars: intravenously from day 3 on for 5 days, tumor volume ratio measured day 8, CDF1 male mice, T/C of not more than 42% judged effective. It is filed as in vivo. How it is done: Test Example [Anti-tumor effect on colon 26 (mouse colon cancer)]
A test was carried out according to the procedure disclosed in Cancer Res., 50. 2290~2295 (1990).
Colon 26 tumor tissue subcultured and transplanted on BALB/c female mice was excised from tumor-bearing mice by incision on the 11th day after the transplantation, and after removal of connective tissues it was minced with scissors. Then, 5 ml of Hank's balanced salt solution was added to 1 g of the tumor, followed by homogenization in a Luer-Lok syringe. After filtration through silicone gauze, cell number in the filtrate cell solution was counted by a hemocytometer and adjusted to 1.0 ×10^6 cells/ml. The resulting cell suspension was subcutaneously transplanted to CDF1 male mice (aged 6 weeks, Charles River, Japan Co.) at the right axillary site at a dose of 0.2 ml/mouse to provide test tumor-bearing mice with each group consisting of 8 mice. The day of cell transplantation was designated as "day 0". TI-356 was dissolved into a surfactant (a solution of HCO 60: polyethyleneglycol =2:1), followed by slow addition of physiological saline thereto to prepare test solutions of various concentrations with the ultimate concentration being about 0.5%. The test solutions were intravenously administered from "day 3" on for 5 days.
RA-VII was used as control.
Tumor propagation-inhibiting effect was determined by measuring the principal axis and the conjugate axis of tumor by a vernier caliper on the day following the completion to administer the compound (day 8) and calculating a tumor volume, a tumor volume ratio and T/C (%) according to the following formulae. T/C of not more than 42% was judged to be effective. [formula]

With `COc1ccc(C[C@H]2C(=O)N[C@@H](C)C(=O)N(C)[C@H]3Cc4ccc(cc4)Oc4cc(ccc4OC)C[C@@H](C(=O)N[C@H](C)C(=O)N[C@@H](C)C(=O)N2C)N(C)C3=O)cc1` [RA-VII], the “T/C (%)” value reads like this: (dose 1.6 mg/kg) 55.8%; (dose 3.13 mg/kg) 48.0%; (dose 6.25 mg/kg) 49.0%.
Regarding `COc1ccc(C[C@H]2C(=O)N[C@@H](C)C(=O)N(C)C3Cc4ccc(cc4)Oc4cc(ccc4OCCN(C(C)C)C(C)C)CC(C(=O)N[C@H](C)C(=O)N[C@@H](C)C(=O)N2C)N(C)C3=O)cc1` (stereo partly drawn) [TI-356], the “T/C (%)” value by setting is: (dose 0.8 mg/kg) 42.1%; (dose 1.6 mg/kg) 41.5%; (dose 3.13 mg/kg) 34.5%.
